Measurements reported in US11666572B2, “Treatment of HER2 positive cancers” (Seagen Inc., priority 2017, dated 2023).
Read-outs that look alike come from different tables or passages of the source.

Columns and labels:
[1] = cited from earlier work
[2] = test system: CTG-0927 HER2 positive cholangiocarcinoma PDX model; assay: CTG-0927 cholangiocarcinoma PDX model, tumor growth inhibition; assay type: in vivo, Mice; settings: study day 28, tucatinib 50 mg/kg orally twice per day, trastuzumab 20 mg/kg IP once every three days
Experimental: (§1) The term “tumor growth inhibition (TGI) index” refers to a value used to represent the degree to which an agent (e.g., tucatinib, an anti-HER2 antibody, or a combination thereof) inhibits the growth of a tumor when compared to an untreated control. The TGI index is calculated for a particular time point (e.g., a specific number of days into an experiment or clinical trial) according to the following formula:
(§2) [formula] where “Tx Day 0” denotes the first day that treatment is administered (i.e., the first day that an experimental therapy or a control therapy (e.g., vehicle only) is administered) and “Tx Day X” denotes X number of days after Day 0.
(§3) Tucatinib was administered orally at a dose of 50 mg/kg twice per day for 28 days (study days 0-27). […] A vehicle-only group was included as a negative control.

[3] = test system: GXA 3038 gastric cancer PDX model; assay: GXA 3038 gastric cancer PDX model, tumor growth inhibition; assay type: in vivo, Mice; settings: study day 28, tucatinib 50 mg/kg orally twice per day, trastuzumab 20 mg/kg IP once every three days
Experimental: as §1, §2, §3

[4] = test system: NCI-H2170 NSCLC xenograft model; assay: NCI-H2170 NSCLC xenograft model, tumor growth inhibition; assay type: in vivo, Mice; settings: study day 39, tucatinib 50 mg/kg orally twice per day, trastuzumab 20 mg/kg IP twice per week, from study day 18
Experimental: as §1, §2
(§4) For the Calu-3 study, tucatinib was administered orally at a dose of 50 mg/kg twice per day for 21 days, beginning on study day 7. […] A vehicle-only group was included as a negative control.
For the NCI-H2170 study, tucatinib was administered orally at a dose of 50 mg/kg twice per day for 21 days, beginning on study day 18. […] A vehicle-only group was included as a negative control.

Calu-3 cells = assay: Response of Calu-3 cells in vitro; assay type: cell-based; settings: previously demonstrated
[5] = test system: CTG-0137 esophageal cancer PDX model; assay: CTG-0137 esophageal cancer PDX model, tumor growth inhibition; assay type: in vivo, Mice; settings: study day 15, tucatinib 50 mg/kg orally twice per day, trastuzumab 20 mg/kg IP once every three days
Experimental: as §1, §2, §3

[6] = Clinical safety observations in patients; assay type: in vivo, human; settings: patients on tucatinib studies
Excerpt: Cardiac function is therefore monitored closely.
Monitoring of liver function tests is required for any patient taking tucatinib.
Patients with brain metastases are at risk for occurrence of AEs due to the presence of CNS lesions, progression of disease and toxicities potentially related to study treatment. On occasion, treatment of brain metastases with systemic or radiation therapy has been associated with localized edema thought to be due to treatment effect and not tumor progression. […] The patient's symptoms responded rapidly and completely to systemic corticosteroids. It was not known if this patient's symptoms were due to local progression or treatment-related toxicity. […] The patient was taken for surgical resection, and found to have no viable tumor. The resected lesion was thought to represent treatment-related necrosis.

CTG-0383 CRC PDX model = assay: CTG-0383 CRC PDX model, tumor growth inhibition; assay type: in vivo, Mice; settings: study day 29, tucatinib 50 mg/kg orally twice per day, trastuzumab 20 mg/kg IP once every three days
Experimental: as §1, §2, §3

NCI-H2170 cells = assay: Response of NCI-H2170 cells in vitro; assay type: cell-based; settings: previously demonstrated
[7] = test system: Calu-3 NSCLC xenograft model; assay: Calu-3 NSCLC xenograft model, tumor growth inhibition; assay type: in vivo, Mice; settings: study day 28, tucatinib 50 mg/kg orally twice per day, trastuzumab 20 mg/kg IP once every three days, from study day 7
Experimental: as §1, §2, §4

[8] = test system: CTG-0138 esophageal cancer PDX model; assay: CTG-0138 esophageal cancer PDX model, tumor growth inhibition; assay type: in vivo, Mice; settings: study day 30, tucatinib 50 mg/kg orally twice per day, trastuzumab 20 mg/kg IP once every three days
Experimental: as §1, §2, §3

[9] = test system: GXA 3039 gastric cancer PDX model; assay: GXA 3039 gastric cancer PDX model, tumor growth inhibition; assay type: in vivo, Mice; settings: study day 29, tucatinib 50 mg/kg orally twice per day, trastuzumab 20 mg/kg IP once every three days
Experimental: as §1, §2, §3

[10] = test system: GXA 3054 gastric cancer PDX model; assay: GXA 3054 gastric cancer PDX model, tumor growth inhibition; assay type: in vivo, Mice; settings: study day 17, tucatinib 50 mg/kg orally twice per day, trastuzumab 20 mg/kg IP once every three days
Experimental: as §1, §2, §3

CTG-0784 CRC PDX model = assay: CTG-0784 CRC PDX model, tumor growth inhibition; assay type: in vivo, Mice; settings: study day 29, tucatinib 50 mg/kg orally twice per day, trastuzumab 20 mg/kg IP once every three days
Experimental: as §1, §2, §3

CTG-0121 CRC PDX model = assay: CTG-0121 CRC PDX model, tumor growth inhibition; assay type: in vivo, Mice; settings: study day 29, tucatinib 50 mg/kg orally twice per day, trastuzumab 20 mg/kg IP once every three days
Experimental: as §1, §2, §3

[11] = attributed to anti-EGFR/HER1 activity of the drug; cited from earlier work
[12] = test system: HER2 positive metastatic CRC (wild-type KRAS exon 2); settings: HERACLES patients, previous treatment with cetuximab or panitumumab; cited from earlier work
[13] = Table 11, strong inhibitors or inducers of CYP3A4
[14] = Table 10, strong inhibitors and inducer of CYP2C8

## NC(=O)N1c2ccccc2C=Cc2ccccc21 [Carbamazepine]
[1]; [13]
  Elimination Half-life: 25 to 65 h

## CC[C@H]1OC(=O)[C@H](C)[C@@H](O[C@H]2C[C@@](C)(OC)[C@@H](O)[C@H](C)O2)[C@H](C)[C@@H](O[C@@H]2O[C@H](C)C[C@H](N(C)C)[C@H]2O)[C@](C)(OC)C[C@@H](C)C(=O)[C@H](C)[C@@H](O)[C@]1(C)O [Clarithromycin]
[1]; [13]
  Elimination Half-life: 3 to 7 h

## C#C[C@]1(O)CC[C@H]2[C@@H]3CCC4=Cc5oncc5C[C@]4(C)[C@H]3CC[C@@]21C [Danazol]
[1]; [13]
  Elimination Half-life: 24 to 26 h

## CC[C@H]1OC(=O)[C@H](C)[C@@H](O[C@H]2C[C@@](C)(OC)[C@@H](O)[C@H](C)O2)[C@H](C)[C@@H](O[C@@H]2O[C@H](C)C[C@H](N(C)C)[C@H]2O)[C@](C)(O)C[C@@H](C)C(=O)[C@H](C)[C@@H](O)[C@]1(C)O [Erythromycin]
[1]; [13]
  Elimination Half-life: 2 h

## Cc1ccc(C)c(OCCCC(C)(C)C(=O)O)c1 [Gemfibrozil]
[1]; [14]
  Elimination Half-life: 1 to 2 h

## CCC(C)n1ncn(-c2ccc(N3CCN(c4ccc(OCC5COC(Cn6cncn6)(c6ccc(Cl)cc6Cl)O5)cc4)CC3)cc2)c1=O (stereo not drawn) [Itraconazole]
[1]; Table 11, single dose
  Elimination Half-life: 21 h
[1]; Table 11, steady state
  Elimination Half-life: 64 h

## CC(C)(O)c1ccccc1CC[C@@H](SCC1(CC(=O)O)CC1)c1cccc(/C=C/c2ccc3ccc(Cl)cc3n2)c1 [Montelukast]
[1]; [14]
  Elimination Half-life: 3 to 6 h (drug insert)

## CCc1nn(CCCN2CCN(c3cccc(Cl)c3)CC2)c(=O)n1CCOc1ccccc1 [Nefazodone]
[1]; [13]
  Elimination Half-life: 2 to 4 h

## O=C1NC(=O)C(c2ccccc2)(c2ccccc2)N1 [Phenytoin]
[1]; [13]
  Elimination Half-life: 7 to 42 h

## CCc1ccc(CCOc2ccc(CC3SC(=O)NC3=O)cc2)nc1 (stereo not drawn) [Pioglitazone]
[1]; [14]
  Elimination Half-life: 3 to 7 h

## O=c1c(O)c(-c2ccc(O)c(O)c2)oc2cc(O)cc(O)c12 [Quercetin]
[1]; [14]
  Elimination Half-life: <2 h

## CN(CCOc1ccc(CC2SC(=O)NC2=O)cc1)c1ccccn1 (stereo not drawn) [Rosiglitazone]
[1]; [14]
  Elimination Half-life: 16 to 24 h

## CC[C@H]1OC(=O)[C@H](C)C(=O)[C@H](C)[C@@H](O[C@@H]2O[C@H](C)C[C@H](N(C)C)[C@H]2O)[C@](C)(OC)C[C@@H](C)C(=O)[C@H](C)[C@H]2N(CCCCn3cnc(-c4cccnc4)c3)C(=O)O[C@]12C [Telithromycin]
[1]; [13]
  Elimination Half-life: 10 h

## COc1cc(Cc2cnc(N)nc2N)cc(OC)c1OC [Trimethoprim]
[1]; [14]
  Elimination Half-life: 8 to 10 h

## Cc1cc(Nc2ncnc3ccc(NC4=NC(C)(C)CO4)cc23)ccc1Oc1ccn2ncnc2c1 [Tucatinib, tucatinib]
[2]
  Observed TGI (%): 48%
[3]
  Observed TGI (%): 110%
[4]
  Observed TGI (%): 91%
Calu-3 cells
  Response in vitro: good responses
[5]
  Observed TGI (%): 49%
[6]
  Elevation of liver function tests: Grade 3 and 4 elevation of LFTs have been seen in some patients
CTG-0383 CRC PDX model
  Observed TGI (%): 117%
NCI-H2170 cells
  Response in vitro: good responses
[7]
  Observed TGI (%): 63%
[8]
  Observed TGI (%): 69%
[9]
  Observed TGI (%): 48%
[10]
  Observed TGI (%): 65%
CTG-0784 CRC PDX model
  Observed TGI (%): 50%
CTG-0121 CRC PDX model
  Observed TGI (%): 104%

## C[C@@H](c1ncncc1F)[C@](O)(Cn1cncn1)c1ccc(F)cc1F [Voriconazole]
[1]; [13]
  Elimination Half-life (hours): Dose dependent

## CC(=O)N1CCN(c2ccc(OCC3COC(Cn4ccnc4)(c4ccc(Cl)cc4Cl)O3)cc2)CC1 (stereo not drawn) [ketoconazole (systemic), ketoconazole]
[1]; [13]
  Elimination Half-life: 2 to 8 h

## CS(=O)(=O)CCNCc1ccc(-c2ccc3ncnc(Nc4ccc(OCc5cccc(F)c5)c(Cl)c4)c3c2)o1 [lapatinib]
[11]
  Toxicities: rash, diarrhea, and fatigue

## panitumumab
[12]
  ORR on previous treatment: 0%
